Here are results for 17 compounds from US10287267B2, “Isoquinolin-3-yl carboxamides and preparation and use thereof” (Samumed, LLC, priority 2016, dated 2019).

A value given as a limit tells only on which side of the number the result lay.

The subject of assay [1] is α-smooth muscle actin (αSMA) positive LL29 cells. The assay can be described thus: Inhibition of fibrotic process: αSMA in TGF-β1 treated primary human fibroblasts from IPF patients.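 On all read-outs here: controls were TGF-β1 stimulated wells with DMSO vehicle (positive) and cells given DMSO alone (negative), cultured in F12 medium with 1% fetal bovine serum.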 As to conditions: Homo sapiens, Fibroblast; for EC50: 96 h, Table 8, LL29 fibroblasts from IPF patients, TGF-β1 20 ng/mL, 4 days, dose-response 10 μM to 0.94 nM. Format: cell-based.
The subject of another assay is IL-6. Description: IL-6 inhibition in LPS-stimulated human peripheral blood mononuclear cells (HTRF).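 On all read-outs here: IL-6 detected by HTRF with an XL665- and Cryptate-labelled anti-IL-6 antibody pair, samples run in duplicate, EC50 obtained from a four-parameter Levenberg-Marquardt curve fit.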 Format: cell-based. The settings on record: Homo sapiens, PBMC; for EC50: Table 9, huPBMCs, LPS 50 ng/mL, 22 hours, dose-response starting from 10 μM; for inhibition at 10 µM: read-out: percent value in parentheses beside EC50 >10 μM. On the technique in general: TR-FRET usually uses a lanthanide donor and a delayed reading to cut background.

Assay [2] deals with Tau phosphorylation at Ser396 (pSer396). The assay can be described thus: Tau phosphorylation assay (pSer396 ELISA / western blot) in SH-SY5Y cells.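 Further: EC50 for reduction of Tau pSer396 in lysed cells, measured by colorimetric ELISA or chemiluminescent western blot, both using the same pSer396 antibody.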 In kind it is cell-based, human. The settings on record: Homo sapiens; SH-SY5Y cells, overnight (16-18 h) exposure; read-out: pSer396 Tau EC50.
The target of another assay is recombinant GSK3β kinase (Homo sapiens (Human), UniProt P49841). Description: GSK3β kinase assay (Ser/Thr 09 peptide Z-lyte FRET).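 Further: kinase activity read as coumarin to fluorescein emission ratio, 11-point threefold dilutions from 10 µM to 0.0003 µM in duplicate, unphosphorylated and phosphorylated peptide as 0% and 100% controls.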 Format: biochemical. As to conditions: 46 μM ATP, 1 h room temperature.
Chain of recombinant GSK3β kinase (P49841 whole entry): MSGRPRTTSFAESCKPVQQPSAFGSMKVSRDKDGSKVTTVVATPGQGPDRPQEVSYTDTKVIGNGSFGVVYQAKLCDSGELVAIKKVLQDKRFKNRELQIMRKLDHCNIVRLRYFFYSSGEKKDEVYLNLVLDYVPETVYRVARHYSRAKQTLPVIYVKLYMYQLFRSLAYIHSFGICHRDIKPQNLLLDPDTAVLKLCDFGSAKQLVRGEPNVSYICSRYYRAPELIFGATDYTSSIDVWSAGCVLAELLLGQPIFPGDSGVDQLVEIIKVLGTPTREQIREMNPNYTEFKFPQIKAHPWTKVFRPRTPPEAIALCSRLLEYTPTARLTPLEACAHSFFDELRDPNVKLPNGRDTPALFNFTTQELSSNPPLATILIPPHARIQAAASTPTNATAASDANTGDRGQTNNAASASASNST
For assay [3], the system named is SW480 colon carcinoma cells. Description: Cell viability assay (CellTiter-Glo). Format: cell-based, human. The settings on record: Homo sapiens; for EC50: 96 h, SW480 cells, CellTiter-Glo, four days incubation; for inhibition at 10 µM: SW480, read-out: percent inhibition at 10 μM.
Assay [4] deals with Wnt pathway (Sp5-Luc reporter, TCF/LEF binding sites) in SW480 colon carcinoma cells. Description: Screening assay for Wnt activity: Sp5-Luc reporter gene assay.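 On all read-outs here: firefly luciferase luminescence read in stably transduced SW480 cells carrying the Sp5 promoter reporter with eight TCF/LEF sites, compounds given in 0.1% DMSO final.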 As to conditions: Homo sapiens; for EC50: Sp5-Luc reporter, SW480 cells, 36 to 48 hours. In kind it is cell-based, human. Background: A reporter such as luciferase makes a cellular process visible.
Method: The screening assay for Wnt activity is described as follows.
Following incubation, 15 μl of BriteLite Plus luminescence reagent (Perkin Elmer) was added to each well of the 384-well assay plates. The plates were placed on an orbital shaker for 2 min and then luminescence was quantified using the Envision (Perkin Elmer) plate reader.
The target in assay [5] is recombinant DYRK1A kinase (Homo sapiens (Human), UniProt Q13627). Description: DYRK1A kinase assay (Ser/Thr 18 peptide Z-lyte FRET).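 Further: Read-out is the coumarin to fluorescein emission ratio, referenced to unphosphorylated (0%) and phosphorylated (100%) Ser/Thr 18 peptide controls, values from dose-response curves by non-linear regression.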 Format: biochemical. As to conditions: 30 μM ATP, 1 h room temperature.

Method for IL-6: After 22 hour incubation, a mixture of anti-IL6 XL665 and anti-IL-6 Cryptate diluted in reconstitution buffer (Catalog #62IL6PEC, Cisbio Inc., Bedford, Mass.) was added to each well. […] All samples were processed in duplicate. […] EC50 was determined using software generated by Dotmatics Limited (Windhill Bishops Stortford Herts, UK) using the Levenberg-Marquardt 4 parameter fitting procedure with finite different gradients.

As usually defined, the EC50 is the concentration giving half of the maximal effect. For `Cn1cc(-c2ccc3cnc(NC(=O)C4CCN(C(=O)CN5CCCC5)CC4)cc3c2)nn1` [Compound 475, N-(6-(1-Methyl-1H-1,2,3-triazol-4-yl)isoquinolin-3-yl)-1-(2-(pyrrolidin-1-yl)acetyl)piperidine-4-carboxamide], the EC50 worked out at 140 nM in assay [1]; 2560 nM in the assay on IL-6; 1800 nM in assay [2]; 23 nM at recombinant GSK3β kinase; 1060 nM in assay [3]; 701 nM in assay [4]. Also, the EC50 in assay [5] is 3.2 nM.
Regarding `CC(C)CN1CCC[C@@H](C(=O)Nc2cc3cc(-c4cnn5c4CN(CCF)CC5)ccc3cn2)C1` [Compound 1002, (R)—N-(6-(5-(2-Fluoroethyl)-4,5,6,7-tetrahydropyrazolo[1,5-a]pyrazin-3-yl)isoquinolin-3-yl)-1-isobutylpiperidine-3-carboxamide], the EC50 in assay [1] was above 10000 nM; in the assay on IL-6 it was above 10000 nM; in assay [2] it was 1900 nM; on recombinant GSK3β kinase, 425 nM; in assay [3] it was above 10000 nM; in assay [4] it was 1920 nM. Also, the EC50 in assay [5] is 28.5 nM. Further, the inhibition at 10 µM was 27.5% in assay [1] (read-out: percent value in parentheses beside EC50 >10 μM), 5.9% with IL-6 and 37.6% in assay [3].
`Cn1cc(-c2ccc3cnc(NC(=O)C4CCN(Cc5ccccc5)CC4)cc3c2)cn1` [Compound 335, 1-Benzyl-N-(6-(1-methyl-1H-pyrazol-4-yl)isoquinolin-3-yl)piperidine-4-carboxamide]: the EC50 in assay [1] was 111 nM; in the assay with IL-6 it was 401 nM; in assay [2] it was 289 nM; at recombinant GSK3β kinase, 71 nM; in assay [3] it was 1120 nM; in assay [4], 993 nM. Moreover, the EC50 in assay [5] was determined as 3.8 nM.
Regarding `CN1CCOC(CC(=O)Nc2cc3cc(-c4cnn(C)c4)ccc3cn2)C1` (stereo not shown) [Compound 350, N-(6-(1-Methyl-1H-pyrazol-4-yl)isoquinolin-3-yl)-2-(4-methylmorpholin-2-yl)acetamide], the EC50 in assay [1] was 100 nM; with IL-6 it was 578 nM; in assay [2], 417 nM; on recombinant GSK3β kinase, 33 nM; in assay [3] it was 1080 nM; in assay [4], 1000 nM. Besides, the EC50 in assay [5] amounted to 6.2 nM.
In the case of `O=C(Nc1cc2cc(-c3cnn(C4CC4)c3)ccc2cn1)C1CCN(CCC(F)(F)F)CC1` [Compound 297, N-(6-(1-Cyclopropyl-1H-pyrazol-4-yl)isoquinolin-3-yl)-1-(3,3,3-trifluoropropyl)piperidine-4-carboxamide], the EC50 in assay [1] came out at 447 nM; with IL-6 it was 1170 nM; in assay [2] it was 1420 nM; on recombinant GSK3β kinase it was 155 nM; in assay [3], 5720 nM; in assay [4], 4810 nM. Moreover, in assay [5], the EC50 was found to be 23.7 nM.
For the compound `CN(C)[C@H]1CC[C@H](C(=O)Nc2cc3cc(-c4cncs4)ccc3cn2)CC1` [Compound 707, trans-4-(Dimethylamino)-N-(6-(thiazol-5-yl)isoquinolin-3-yl)cyclohexane-1-carboxamide], the concentration for a half-maximal effect (EC50) in assay [1] turned out to be 4240 nM; in the assay on IL-6, 446 nM; in assay [2], 449 nM; on recombinant GSK3β kinase, 46 nM; in assay [3], 947 nM; in assay [4], 472 nM. Further, the EC50 in assay [5] was found to be 0.9 nM.
On to `CO[C@H]1CC[C@H](C(=O)Nc2cc3cc(-c4cnn(C)c4CN4CCCCC4)ccc3cn2)CC1` [Compound 795, trans-4-Methoxy-N-(6-(1-methyl-5-(piperidin-1-ylmethyl)-1H-pyrazol-4-yl)isoquinolin-3-yl)cyclohexane-1-carboxamide], for which the EC50 in assay [1] came out at 227 nM; in the assay on IL-6, 1220 nM; in assay [2] it was 401 nM; on recombinant GSK3β kinase, 33 nM; in assay [3] it was 806 nM; in assay [4], 471 nM. For the same compound, the EC50 in assay [5] was determined as 2.4 nM.
For `CN1CCn2ncc(-c3ccc4cnc(NC(=O)C5CC(F)(F)C5)cc4c3)c2C1` [Compound 267, 3,3-Difluoro-N-(6-(5-methyl-4,5,6,7-tetrahydropyrazolo[1,5-a]pyrazin-3-yl)isoquinolin-3-yl)cyclobutanecarboxamide], the EC50 in assay [1] was 590 nM; with IL-6, 9410 nM; in assay [2], 555 nM; on recombinant GSK3β kinase, 39 nM; in assay [3], 2020 nM; in assay [4] it was 1380 nM. Further, the EC50 in assay [5] stood at 29.4 nM.
`O=C(Nc1cc2cc(-c3cnn4c3CN(CCF)CC4)ccc2cn1)C1CCNCC1` [Compound 1022, N-(6-(5-(2-Fluoroethyl)-4,5,6,7-tetrahydropyrazolo[1,5-a]pyrazin-3-yl)isoquinolin-3-yl)piperidine-4-carboxamide]: the EC50 was 222 nM in assay [1]; 3290 nM with IL-6; 9600 nM in assay [2]; 124 nM at recombinant GSK3β kinase; 3340 nM in assay [3]; 1370 nM in assay [4]. Moreover, the EC50 in assay [5] amounted to 4.2 nM.
For `Cn1cc(-c2cc3cc(NC(=O)C4CCN(CCF)CC4)ncc3cc2F)cn1` [Compound 371, N-(7-Fluoro-6-(1-methyl-1H-pyrazol-4-yl)isoquinolin-3-yl)-1-(2-fluoroethyl) piperidine-4-carboxamide], the EC50 was determined as 394 nM in assay [1]; 1210 nM with IL-6; 581 nM in assay [2]; 23 nM on recombinant GSK3β kinase; 1060 nM in assay [3]; 643 nM in assay [4]. Further, the EC50 in assay [5] was 2.4 nM.
On to `C[C@H]1COCCN1CC(=O)Nc1cc2cc(-c3cnn(C)c3)ccc2cn1` [Compound 341, (S)—N-(6-(1-Methyl-1H-pyrazol-4-yl)isoquinolin-3-yl)-2-(3-methylmorpholino)acetamide], for which the EC50 is 2370 nM in assay [1]; above 10000 nM in the assay on IL-6; 1600 nM in assay [2]; 89 nM on recombinant GSK3β kinase; above 10000 nM in assay [3]; 4100 nM in assay [4]. The 50% effective concentration (EC50) in assay [5] was determined as 5.6 nM. The inhibition at 10 µM with IL-6 came to 46.1%; in assay [3], 33.9%.
Consider `CC(C)CN1CCC[C@H](C(=O)Nc2cc3cc(-c4cnn(C)c4)ccc3cn2)C1` [Compound 112, (S)-1-Isobutyl-N-(6-(1-methyl-1H-pyrazol-4-yl)isoquinolin-3-yl)piperidine-3-carboxamide], for which the EC50 came to 546 nM in assay [1]; 2990 nM with IL-6; 1750 nM in assay [2]; 292 nM on recombinant GSK3β kinase; 6420 nM in assay [3]; 3200 nM in assay [4]. Moreover, in assay [5], the EC50 was 20.6 nM.
As for `Cn1cc(-c2ccc3cnc(NC(=O)C4CCN(Cc5cnccn5)CC4)cc3c2)cn1` [Compound 1004, N-(6-(1-Methyl-1H-pyrazol-4-yl)isoquinolin-3-yl)-1-(pyrazin-2-ylmethyl)piperidine-4-carboxamide], the EC50 was 5040 nM in assay [1]; 1180 nM with IL-6; 667 nM in assay [2]; 37 nM on recombinant GSK3β kinase; 678 nM in assay [3]; 618 nM in assay [4]. In addition, the EC50 in assay [5] is 2 nM.
Consider `[2H]C([2H])([2H])n1cc(-c2ccc3cnc(NC(=O)CN4CCCC4)cc3c2)cn1` [Compound 305, N-(6-(1-(Methyl-d3)-1H-pyrazol-4-yl)isoquinolin-3-yl)-2-(pyrrolidin-1-yl) acetamide], for which the EC50 in assay [1] came to 5510 nM; with IL-6 it was 1140 nM; in assay [2], 247 nM; on recombinant GSK3β kinase, 51 nM; in assay [3] it was 1650 nM; in assay [4], 1940 nM. Moreover, the EC50 in assay [5] amounted to 8.2 nM.
`[2H]C([2H])([2H])n1cc(-c2ccc3cnc(NC(=O)C4CCN(CCC(F)(F)F)CC4)cc3c2)cn1` [Compound 304, N-(6-(1-(Methyl-d3)-1H-pyrazol-4-yl)isoquinolin-3-yl)-1-(3,3,3-trifluoropropyl)piperidine-4-carboxamide]: the EC50 in assay [1] amounted to 150 nM; in the assay with IL-6 it was 1140 nM; in assay [2], 210 nM; on recombinant GSK3β kinase it was 29 nM; in assay [3], 1340 nM; in assay [4] it was 2320 nM. Also, the EC50 in assay [5] stood at 2.7 nM.
For `C[C@@H](C(=O)Nc1cc2cc(-c3cnn(C)c3)ccc2cn1)N1CCOCC1` [Compound 348, (S)—N-(6-(1-Methyl-1H-pyrazol-4-yl)isoquinolin-3-yl)-2-morpholinopropanamide], the EC50 in assay [1] was 1460 nM; in the assay on IL-6 it was above 10000 nM; in assay [2] it was 2000 nM; at recombinant GSK3β kinase, 221 nM; in assay [3], above 10000 nM; in assay [4] it was above 10000 nM. Besides, the EC50 in assay [5] is 77.5 nM. In addition, the inhibition at 10 µM in the assay with IL-6 was 19%; in assay [3], 22.4%; in assay [4] (SW480, read-out: percent inhibition at 10 μM), 36.9%.
For `O=C(Nc1cc2cc(-c3cncs3)ccc2cn1)C1CCN(C(=O)CN2CCCC2)CC1` [Compound 741, 1-(2-(Pyrrolidin-1-yl)acetyl)-N-(6-(thiazol-5-yl)isoquinolin-3-yl)piperidine-4-carboxamide], the EC50 in assay [1] turned out to be 175 nM; in the assay on IL-6 it was 380 nM; in assay [2], 528 nM; at recombinant GSK3β kinase, 107 nM; in assay [3], 462 nM; in assay [4], 444 nM. In assay [5], the EC50 was found to be 0.9 nM.
